This note sets out measurements from ChEMBL document CHEMBL6083254, “Optimization of B-Ring-Functionalized Antimalarial Tambjamines and Prodiginines” (J Med Chem, 2024).

Several values for one entry are separate records, joined by “and”; a condition that tells them apart may be missing. Equal entries are not always repeated. Activity calls are given as the source filed them. The rule behind the calls is not given here. Bounds are passed on as bounds.

One data set is described as follows: in vitro. The note with it: human.
Data set [1] has as its system Plasmodium falciparum. Briefly: microbe, parasite or virus in culture. The note with it: Dd2, 72 h.
Data set [2] has as its system Plasmodium yoelii. Briefly: Antiplasmodial activity against asexual erythrocytic stage of Plasmodium yoelii infected in female CFI mouse model assessed as reduction in parasitemia at 25 mg/kg, po administered once daily for 4 days and measured on day 5 by Giemsa staining based microscopic analysis relative to control. Type of data set: functional. The arrangement: scale not given: the % may be the effect or the level left. The note with it: time 5 day.

Data set [3] in a line: Aqueous solubility of compound in PBS buffer at pH 7.4 incubated for 90 mins by UV-vis spectroscopic analysis. The note with it: pH 7.4, 1.5 h.
The nature of data set [4]: Metabolic stability in human liver microsomes assessed as half life measured upto 60 mins LC-MS analysis.
The test system of data set [5] is Plasmodium yoelii. Briefly: Antiplasmodial activity against asexual erythrocytic stage of Plasmodium yoelii infected in female CFI mouse model at 10 mg/kg, po administered once daily for 4 days and measured on day 5 by Giemsa staining based microscopic analysis. Type of data set: functional, organism-based. To be noted: time 5.0 day.
The test system of data set [6] is Plasmodium yoelii. The data set can be described thus: Antiplasmodial activity against asexual erythrocytic stage of Plasmodium yoelii infected in female CFI mouse model at 25 mg/kg, po administered once daily for 4 days and measured on day 5 by Giemsa staining based microscopic analysis. Type of data set: functional, organism-based. The note with it: time 5.0 day.

Data set [7] can be described thus: Metabolic stability in mouse liver microsomes assessed as intrinsic clearance measured upto 60 mins LC-MS analysis.
In data set [8] the test system is Plasmodium yoelii. The data set can be described thus: Antiplasmodial activity against asexual erythrocytic stage of Plasmodium yoelii infected in po dosed female CFI mouse model assessed as reduction in parasitemia administered once daily for 4 days and measured on day 5 by Giemsa staining based microscopic analysis. The note with it: 120 h, time 5 day. Type of data set: functional.

A short description of data set [9]: Metabolic stability in mouse liver microsomes assessed as half life measured upto 60 mins LC-MS analysis.
Data set [10] has as its system Plasmodium falciparum. Briefly: microbe, parasite or virus in culture. The note with it: Tm90-C2B, 72 h.
In data set [11] the test system is Plasmodium yoelii. Briefly: Antiplasmodial activity against asexual erythrocytic stage of Plasmodium yoelii infected in female CFI mouse model assessed as reduction in parasitemia at 3 mg/kg, po administered once daily for 4 days and measured on day 5 by Giemsa staining based microscopic analysis relative to control. Type of data set: functional. The arrangement: scale not given: the % may be the effect or the level left.

Data set [12] concerns Plasmodium falciparum. Briefly: microbe, parasite or virus in culture. The note with it: D6, 72 h.
For data set [13], the system named is Plasmodium yoelii. The data set can be described thus: Antiplasmodial activity against asexual erythrocytic stage of Plasmodium yoelii infected in female CFI mouse model assessed as reduction in parasitemia at 1 mg/kg, po administered once daily for 4 days and measured on day 5 by Giemsa staining based microscopic analysis relative to control. The data set is classed as functional. The arrangement: scale not given: the % may be the effect or the level left.

Another data set deals with HepG2. The data set can be described thus: (§1) Cytotoxicity against human HepG2 cells assessed as cell viability incubated for 72 hrs by MTT assay. To be noted: hepg2. The data set is classed as toxicity, cell-based.
Data set [14] in a line: Metabolic stability in human liver microsomes assessed as intrinsic clearance measured upto 60 mins LC-MS analysis.
In data set [15] the test system is Plasmodium yoelii. Briefly: Antiplasmodial activity against asexual erythrocytic stage of Plasmodium yoelii infected in female CFI mouse model assessed as reduction in parasitemia at 10 mg/kg, po administered once daily for 4 days and measured on day 5 by Giemsa staining based microscopic analysis relative to control. The data set is classed as functional. The arrangement: scale not given: the % may be the effect or the level left.

Data set [16] is described as follows: as §1. Type of data set: toxicity, cell-based. The note with it: human, HepG2 cells.
Where [17] appears, read: Plasmodium yoelii, po, read-out: ED50.

Description for in vitro: Selectivity index, ratio of IC50 for cytotoxicity against human HepG2 cells assessed as cell viability to IC50 for antiplasmodial activity against asexual erythrocytic stage of Plasmodium falciparum D6 assessed as inhibition of parasitic growth incubated

Turning to `CCCCCc1cc(/C=C2\N=C(c3ccc[nH]3)C=C2Oc2ccc(OC(F)(F)F)cc2)[nH]c1C.Cl`, in the data set “in vitro”, the selectivity ratio was found to be 1910. Moreover, the IC50 with Plasmodium falciparum [1] was 7.4 nM; in the data set on Plasmodium falciparum [10], 9.54 nM; with Plasmodium falciparum [12] it was 8.61 nM; with HepG2, 16500 nM. Moreover, the Activity is 100% in the data set with Plasmodium yoelii [2], 92% in the data set on Plasmodium yoelii [11] (time 5 day), 49.1% in the data set on Plasmodium yoelii [13] (time 5 day) and 100% in the data set with Plasmodium yoelii [15] (time 5 day). In data set [3], this compound returned a solubility of less than 3.125 µM. The half-life at 1 h worked out at 59.4 min in [4] and 38 min in data set [9]. For the same compound, in the data set on Plasmodium yoelii [5], the outcome was inactive. In addition, the result in the data set with Plasmodium yoelii [6] was Active. In addition, the microsomal CLint at 1 h in data set [7] was 36.4 µL/min/mg; in [14], 23.3 µL/min/mg. Further, the ED50 with Plasmodium yoelii [8] (setting [17]) stood at 1.01 mg/kg/day.
For the compound `CCCCCCCCCCCC1=N/C(=C\c2[nH]c(-c3ccc[nH]3)cc2OC)C=C1` [UNDECYLPRODIGININE], the selectivity ratio in the data set “in vitro” amounted to 237. The IC50 in the data set with Plasmodium falciparum [1] was found to be 7.54 nM; with Plasmodium falciparum [10], 8.21 nM; in the data set with Plasmodium falciparum [12], 7.22 nM. In addition, the Activity with Plasmodium yoelii [2] was 100%. The outcome with Plasmodium yoelii [6] was Active. Besides, the outcome in the data set on Plasmodium yoelii [11] (time 5.0 day), in the data set on Plasmodium yoelii [13] (time 5.0 day) and in the data set with Plasmodium yoelii [15] (time 5.0 day) was inactive. In addition, the IC50 at 72 h in data set [16] amounted to 1710 nM.
In the case of `CCCCCc1cc(/C=C2\N=C(c3ccc[nH]3)C=C2OCC)[nH]c1C.Cl`, in the data set “in vitro”, the selectivity ratio was 1500. Besides, the 50% inhibitory concentration (IC50) was determined as 1.31 nM with Plasmodium falciparum [1], 7.29 nM in the data set with Plasmodium falciparum [10], 2.45 nM in the data set on Plasmodium falciparum [12] and 3680 nM in the data set with HepG2. Moreover, the Activity in the data set with Plasmodium yoelii [2] was 100%; in the data set with Plasmodium yoelii [11] (time 5 day), 46.6%; with Plasmodium yoelii [13] (time 5 day) it was 2.1%; with Plasmodium yoelii [15] (time 5 day), 100%. For the same compound, in the data set on Plasmodium yoelii [5], the result was inactive. For the same compound, the ED50 was found to be 3.12 mg/kg/day in the data set on Plasmodium yoelii [8] (setting [17]) and 5.61 mg/kg/day with Plasmodium yoelii [8].
On to `CCCCCc1cc(/C=C2\N=C(c3ccc[nH]3)C=C2OCCC)[nH]c1C.Cl`, for which the selectivity ratio in the data set “in vitro” turned out to be 11600. For the same compound, the IC50 in the data set with Plasmodium falciparum [1] was determined as 0.501 nM; in the data set with Plasmodium falciparum [10] it was 4.58 nM; in the data set with Plasmodium falciparum [12], 0.307 nM; in the data set on HepG2, 3560 nM. The Activity in the data set with Plasmodium yoelii [2] turned out to be 100%; with Plasmodium yoelii [11] (time 5 day) it was 89.9%; in the data set with Plasmodium yoelii [13] (time 5 day), 23.9%; in the data set with Plasmodium yoelii [15] (time 5 day) it was 100%. In addition, the solubility in data set [3] amounted to 18.5 µM. Moreover, the half-life at 1 h in data set [4] was determined as 43.6 min; in data set [9], 34 min. Further, the result in the data set with Plasmodium yoelii [5] was inactive. For the same compound, the microsomal CLint at 1 h in data set [7] is 40.8 µL/min/mg; in data set [14], 31.8 µL/min/mg. Further, in the data set on Plasmodium yoelii [8], the ED50 was 1.46 mg/kg/day and 3 mg/kg/day.
For the compound `CCCCCC1=C/C(=C\c2[nH]c(-c3ccc[nH]3)cc2OC)N=C1C`, the IC50 is 7.32 nM with Plasmodium falciparum [1], 8.8 nM with Plasmodium falciparum [10] and 8.01 nM in the data set on Plasmodium falciparum [12]. The half-life at 1 h in [4] is greater than 60 min; in data set [9], 23 min. The intrinsic clearance (microsomal CLint) at 1 h in data set [7] is 61.2 µL/min/mg; in data set [14], 13.1 µL/min/mg. In addition, in data set [16], the IC50 at 72 h was determined as 1070 nM.
For `CCCCCc1cc(/C=C2\N=C(c3ccc[nH]3)C=C2OC(C)C)[nH]c1C.Cl`, the selectivity ratio in “in vitro” turned out to be 3190. Moreover, the concentration for half-maximal inhibition (IC50) with Plasmodium falciparum [1] stood at 0.27 nM; in the data set with Plasmodium falciparum [10] it was 1.56 nM; with Plasmodium falciparum [12], 1.09 nM; with HepG2, 3480 nM. The Activity in the data set with Plasmodium yoelii [2] was found to be 100%; in the data set on Plasmodium yoelii [11] (time 5 day), 71.8%; in the data set with Plasmodium yoelii [13] (time 5 day), 4.2%; in the data set with Plasmodium yoelii [15] (time 5 day), 100%. For the same compound, the result in the data set with Plasmodium yoelii [5] was inactive. Also, in the data set with Plasmodium yoelii [6], the result was Active. Further, the results for the 50% effective dose (ED50) in the data set with Plasmodium yoelii [8] (setting [17]) and in the data set with Plasmodium yoelii [8] were 2.25 mg/kg/day and 4.42 mg/kg/day, respectively.
